Measured values reported in US6022495A, “Photochromic benzopyrano-fused naphthopyrans” (Transitions Optical, Inc., priority 1998, dated 2000).

How the values were obtained:
[1] = Photochromic response of polymer test squares on an optical bench; type: physicochemical; settings: for ΔOD @ Saturation: UV exposure continued for 15 minutes; for ΔOD @ Saturation / Sensitivity ΔOD/min: 72° F. (22.2° C.); for Sensitivity ΔOD/min: first five (5) seconds of UV exposure, expressed per minute; for Bleach Rate T 1/2: time for absorbance of activated form to reach one half the highest absorbance at room temperature (72° F.) after removal of activating light
Procedure: (§1) Testing was done with the photochromic compounds prepared in Examples 1-11 in the following manner. A quantity of each photochromic compound calculated to yield a 1.5×10^-3 molal solution was added to a flask containing 50 grams of a monomer blend of 4 parts ethoxylated bisphenol A dimethacrylate (BPA 2EO DMA), 1 part poly(ethylene glycol) 600 dimethacrylate, and 0.033 weight percent 2,2'-azobis(2-methyl propionitrile) (AIBN). Each photochromic compound was dissolved into the monomer blend by stirring and gentle heating. After a clear solution was obtained, it was poured into a flat sheet mold having the interior dimensions of 2.2 mm×6 inches (15.24 cm)×6 inches (15.24 cm). The mold was sealed and placed in a horizontal air flow, programmable oven programmed to increase the temperature from 40° C. to 95° C. over […], hold the temperature at 95° C. for 3 hours, lower it to 60° C. over a 2 hour interval and then hold at 60° C. for 16 hours. After the mold was opened, the polymer sheet was cut using a diamond blade saw into 2 inch (5.1 centimeters) test squares.
The photochromic test squares prepared in Part A were tested for photochromic response on an optical bench. Prior to testing on the optical bench, the photochromic test squares were exposed to 365 nanometer ultraviolet light for about 15 minutes to activate the photochromic compounds and then placed in a 76° C. oven for about 15 minutes to bleach or inactivate the photochromic compounds. The test squares were then cooled to room temperature, exposed to fluorescent room lighting for at least 2 hours and then kept covered for at least 2 hours prior to testing on an optical bench maintained at 72° F. (22.2° C.). The bench was fitted with a 150 watt Xenon arc lamp, a remote controlled shutter, a copper sulfate bath acting as a heat sink for the arc lamp, a Schott WG-320 nm cut-off filter which removes short wavelength radiation; neutral density filter(s) and a sample holder in which the square to be tested was inserted. The power output of the optical bench, i.e., the dosage of light that the sample lens would be exposed to, was calibrated with a photochromic test square used as a reference standard. […] The UV-A detector was placed into the sample holder and the light output was measured. Adjustments to the power output were made by increasing or decreasing the lamp wattage or by adding or removing neutral density filters in the light path.
A monitoring, collimated beam of light from a tungsten lamp was passed through the square at a small angle (approximately […]) normal to the square. After passing through the square, the light from the tungsten lamp was directed to a detector through Spectral Energy Corp. GM-200 monochromator set at the previously determined visible lambda max of the photochromic compound being measured. The output signals from the detector were processed by a radiometer.
Change in optical density (ΔOD) was determined by inserting a test square in the bleached state into the sample holder, adjusting the transmittance scale to 100%, opening the shutter from the Xenon lamp to provide ultraviolet radiation to change the test square from the bleached state to an activated (i.e., darkened) state, measuring the transmittance in the activated state, and calculating the change in optical density according to the formula: ΔOD=log(100/% Ta), where % Ta is the percent transmittance in the activated state and the logarithm is to the base 10.
The Δ OD/min, which represents the sensitivity of the photochromic compound's response to UV light, was measured over the first five (5) seconds of UV exposure, then expressed on a per minute basis. The saturation optical density (Δ OD@ Saturation) was taken under identical conditions as the Δ OD/min, except UV exposure was continued for 15 minutes. […]

[2] = Visible lambda max of the activated form in polymer test squares (Varian Cary 3 UV-Visible spectrophotometer); type: physicochemical; settings: activated (colored) form in test square of BPA 2EO DMA / poly(ethylene glycol) 600 dimethacrylate, 1.5×10^-3 molal
Procedure: as §1
The Δ OD/min, which represents the sensitivity of the photochromic compound's response to UV light, was measured over the first five (5) seconds of UV exposure, then expressed on a per minute basis. The saturation optical density (Δ OD@ Saturation) was taken under identical conditions as the Δ OD/min, except UV exposure was continued for 15 minutes. The lambda max (Vis) is the wavelength in nanometers (nm) in the visible spectrum at which the maximum absorption of the activated (colored) form of the photochromic compound in a test square occurs. The lambda max (Vis) wavelength was determined by testing the photochromic test square polymerizates of Part A in a Varian Cary 3 UV-Visible spectrophotometer. The Bleach Rate (T 1/2) is the time interval in seconds for the absorbance of the activated form of the photochromic compound in the test squares to reach one half the highest absorbance at room temperature (72° F., 22.20C.) after removal of the source of activating light.

Row | SMILES | ΔOD @ Saturation [1] | Sensitivity ΔOD/min [1] | Bleach Rate T 1/2 [1] [s] | lambda max (Vis) [2] [nanometers] | ΔOD @ Saturation ([1]; listed as 2A) | ΔOD @ Saturation ([1]; listed as 2B) | Sensitivity ΔOD/min ([1]; listed as 2A) | Sensitivity ΔOD/min ([1]; listed as 2B) | Bleach Rate T 1/2 ([1]; listed as 2A) [s] | Bleach Rate T 1/2 ([1]; listed as 2B) [s] | lambda max (Vis) ([2]; listed as 2A) [nanometers] | lambda max (Vis) ([2]; listed as 2B) [nanometers]
1 | COc1ccc(C2(c3ccc(N4CCOCC4)cc3)C=Cc3c(c4c5ccccc5c(=O)oc4c4ccccc34)O2)cc1 (centres unmarked) [Compound 3A, 2-(4-methoxyphenyl)-2-(4-morpholinophenyl)-10-oxo-2,10-dihydro[2]benzopyrano[4',3':3,4]naphtho(2,1-b)pyran] | 0.01 | 0.04 ΔOD/min | 3 | 530 |  |  |  |  |  |  |  | 
2 | COc1ccc(C2(c3ccc(N4CCOCC4)cc3)C=Cc3c(c4ccccc4c4c3oc(=O)c3ccccc34)O2)cc1 (centres unmarked) [Compound 3B, 6-(4-methoxyphenyl)-6-(4-morpholinophenyl)-10-oxo-6,10-dihydro[2]benzopyrano[3',4':3,4]naphtho(1,2-b)pyran] | 0.06 | 0.13 ΔOD/min | 39 | 598 |  |  |  |  |  |  |  | 
3 | COc1ccc(C2(c3ccc(OC)cc3)C=Cc3c(c4ccccc4c4c3oc(=O)c3ccccc34)O2)cc1 [Compound 1B, 6,6-bis(4-methoxyphenyl)-10-oxo-6,10-dihydro[2]benzopyrano[3',4':3,4]naphtho(1,2-b)pyran] | 0.07 | 0.19 ΔOD/min | 24 | 537 |  |  |  |  |  |  |  | 
4 | COc1ccc(C2(c3ccc(OC)cc3)C=Cc3c4c(c5ccccc5c3O2)-c2ccccc2CO4)cc1 [Compound 2, 6,6-bis(4-methoxyphenyl)-6,10-dihydro[2]benzopyrano[3'4':3,4]naphtho(1,2-b)pyran] |  |  |  |  | 0.22 | 0.27 | 0.10 ΔOD/min | 0.12 ΔOD/min | 116 | 112 | 546 | 432
5 | O=c1oc2c3ccccc3c3c(c2c2ccccc12)OC(c1ccccc1)(c1ccc(N2CCOCC2)cc1)C=C3 (centres unmarked) [Compound 5A, 2-(4-morpholinophenyl)-2-phenyl-10-oxo-2,10-dihydro[2]benzopyrano[4',3':3,4]naphtho(2,1-b)pyran] | 0.12 | 0.21 ΔOD/min | 37 | 570 |  |  |  |  |  |  |  | 
6 | COc1ccc(C2(c3ccccc3)C=Cc3c(c4ccccc4c4c3oc(=O)c3cc(OC)c(OC)cc34)O2)cc1 (centres unmarked) [Compound 7A, 6-(4-methoxyphenyl)-6-phenyl-12,13-dimethoxy-10-oxo-6,10-dihydro[2]benzopyrano[3',4':3,4]naphtho(1,2-b)pyran] | 0.22 | 0.27 ΔOD/min | 54 | 569 |  |  |  |  |  |  |  | 
7 | COc1ccc(C2(c3ccccc3)C=Cc3c(c4c5cc(OC)c(OC)cc5c(=O)oc4c4ccccc34)O2)cc1 (centres unmarked) [Compound 7B, 2-(4-methoxphenyl)-2-phenyl-12,13-dimethoxy-10-oxo-2,10-dihydro[2]benzopyrano[4',3':3,4]naphtho(2,1-b)pyran] | 0.29 | 0.31 ΔOD/min | 47 | 464 |  |  |  |  |  |  |  | 
